Data: article PMC6946680, “Modulation of brain cation-Cl^− cotransport via the SPAK kinase inhibitor ZT-1a” (Nature Communications, 2020)
Values joined by “and” are separate entries in the source; they are usually repeats but may differ in a detail not shown here. Equal values may be shown once.

Legend:
humans = settings: cited from earlier work
SPAK pSer373 = test: Choroid plexus SPAK/OSR1 immunoblot in rat post-hemorrhagic hydrocephalus (IVH) model; type: in vivo
[1] = test system: mouse model of ischemic stroke (tMCAO); test: Adhesive-removal test after tMCAO; type: in vivo; settings: for Adhesive removal time: Fig 7c, individual mice #1-#7
KCC3 pThr991/pThr1048 = test: Choroid plexus KCC3 phospho-IP/immunoblot in rat IVH model; type: in vivo
[2] = parameters: method as in Reviewer #3; settings: as stated by Reviewer #3 in the peer-review file; ref Reviewer #3; cited from earlier work
[3] = test system: GSK-3β Ser9 phosphorylation; test: Immunoblot of GSK-3β Ser9 phosphorylation in HEK-293 cells; settings: for GSK3b pSer9 / Actin: Fig S4b
pNKCC1 (pThr203/207/212) = test: Immunoblot of pNKCC1 in ischemic mouse brain membrane fractions; settings: for NKCC1 / Na-K pumb / pThr203/207/212 / NKCC1: Fig 8, individual samples
KCC3 pThr991 = test: Immunoblot of KCC site 1 phosphorylation (KCC3 Thr991) in HEK-293 cells transfected with FLAG-KCC3; type: cell-based, human; settings: for KCC3 pThr991 / KCC3: Fig S4b
HEK-293 cells = test: 86Rb+ uptake assay in empty-vector-transfected HEK-293 cells; type: cell-based, human; parameters: key: 86Rb+ uptake in CPM per mg protein; settings: Empty V + 1a (10 µM), replicates
Experimental: (§1) Thirty-six hours post transfection, cells were exposed for 30 min to either control isotonic conditions or hypotonic low [Cl^−] conditions (to activate the SPAK/OSR1 pathway), and then treated for an additional 30 min in the same conditions with the indicated ZT-1a concentrations in the presence of 1 mM ouabain and 0.1 mM bumetanide. Ten-minute ^86Rb^+ uptake values were quantified by scintillation counting, normalized per mg protein for each condition, and plotted for both isotonic and hypotonic conditions. ***p < 0.001; **p < 0.01; *p < 0.05; ns—nonsignificant [by one-way ANOVA with post hoc testing (n = 6, error bars represent the mean ± SEM)]. b ^86Rb^+ uptake assays in the presence of ZT-1a measure transport activity of NKCC1. […] Thirty-six hours post transfection, cells were exposed for 30 min to either control isotonic conditions or hypotonic low [Cl^−] conditions (to activate the SPAK/OSR1 pathway), and then treated in the same conditions for an additional 30 min with 10 µM ZT-1a or 0.1 mM bumetanide (Bum) in the presence of 1 mM ouabain (Na^+/K^+-ATPase inhibitor). ^86Rb^+ uptake was allowed to proceed for 10 min and was then quantified by scintillation counting. ^86Rb^+ uptake CPMs were normalized per mg protein and plotted for both isotonic and hypotonic conditions. […] Thirty-six hours post transfection, cells were exposed for 30 min to either control isotonic conditions or hypotonic low [Cl^−] conditions (to activate the SPAK/OSR1 pathway), and then treated for an additional 30 min in the same conditions with the indicated ZT-1a concentrations in the presence of 1 mM ouabain. Ten-minute ^86Rb^+ uptake values were quantified by scintillation counting, normalized per mg protein for each condition, and plotted for both isotonic and hypotonic conditions. ***p < 0.001; **p < 0.01; *p < 0.05; ns—nonsignificant [by one-way ANOVA with post hoc testing (n = 6, error bars represent the mean ± SEM)].
(§2) This stimulating medium was then removed and replaced with isotonic medium containing inhibitors plus 2 µCi/ml ^86Rb^+. After incubation for 10 min at 37 °C, cells were rapidly washed three times with the respective ice-cold nonradioactive medium. Washed cells were lysed in 300 µl of ice-cold lysis buffer and ^86Rb^+ uptake was quantitated by liquid scintillation counting (PerkinElmer).

KCC3 [4] = test: Immunoblot of total KCC3 / Actin in HEK-293 cells transfected with FLAG-KCC3; type: cell-based, human; settings: Fig S4b
AMPK (hum) = test: Kinase profiling panel; type: biochemical, human
Experimental: Supplementary Table 2. ZT-1a kinase profiling data6.
ZT-1a was tested at 10 and 1 µM against a panel of 140 recombinant kinases in an enzymatic
activity-based assay performed by the International Centre for Kinase Profiling in the MRC
Protein Phosphorylation and Ubiquitylation Unit. Values represent % residual kinase activity

[5] = test system: mouse model of ischemic stroke (tMCAO); test: Neurological deficit score after tMCAO; type: in vivo; settings: for Neurological score (score): Fig 7c, individual mice #1-#7; for neurological deficit score: ZT-1a 5.0 mg/kg
pERK1/2 = test: Immunoblot of phospho-ERK1/2 in ischemic mouse brain; type: in vivo; settings: for pERK/Na K pump (fold veh-CL): Membrane
Description: Cytosol and crude membrane protein
Expressions of Na+-K+ ATPase
respectively. d Densitometric analyses of immunoblots.

KCC3 [6] = test: 86Rb+ uptake assay for KCC3 activity in HEK-293 cells; type: cell-based, human; parameters: key to 86Rb+ uptake: 86Rb+ uptake CPM normalized per mg protein (10-min uptake); settings: for 86Rb+ uptake: replicates
Experimental: ^86Rb^+ flux assays have been utilized extensively as a reliable measurement of cation chloride cotransporter activity[51]–[54].
as §1, §2

[7] = rat CPe 48 h post IVH + 1a, replicates

For Cc1cc(C(C#N)c2ccc(Cl)cc2)c(Cl)cc1NC(=O)c1cc(I)cc(I)c1O (stereo not shown) [Closantel, reference compound], the “toxicity contraindicating use in humans” value (humans) is listed as “retinal toxicity”.
In the case of Cc1cc(C(C#N)c2ccc(Cl)cc2)c(Cl)cc1NC(=O)c1cc(Cl)ccc1O (stereo not shown) [ZT-1a, 5-chloro-N-(5-chloro-4-((4-chlorophenyl)(cyano)methyl)-2-methylphenyl)-2-hydroxybenzamide], the “SPAK / Actin” value (SPAK pSer373; [7]) is reported as 2.39 and 2.21 and 2.2 and 2.51 and 2.16 and 2.37, the “SPAK pSer373 / Actin” value (SPAK pSer373; [7]) is reported as 0.69 and 0.85 and 1.13 and 0.73 and 0.89 and 1.07 and the “reduction of IVH-induced expression of pSPAK in CPe” value (SPAK pSer373; rat, ICV ZT-1a, 48 h post IVH, n = 3) is reported as 55 ± 3.6%. The “Adhesive removal time” value ([1]; Day 1) was 15 seconds and 27 seconds and 70 seconds and 120 seconds and 28 seconds (2×) and 85 seconds, the “Adhesive removal time” value ([1]; Day 3) was 26 s and 16 s and 65 s and 29 s and 9 s and 41 s and 62 s and the “Adhesive removal time” value ([1]; Day 5) was 36 s and 27 s and 56 s and 35 s and 15 s and 28 s and 24 s. For the same compound, the “Adhesive removal time” value ([1]; Day 7) was 8 seconds (2×) and 14 seconds and 57 seconds and 19 seconds and 16 seconds and 28 seconds, the “Adhesive removal time” value ([1]; Day -1 (baseline)) was 25 seconds and 8 seconds and 7 seconds (2×) and 11 seconds and 13 seconds and 22 seconds and the “adhesive contact and removal tests” value ([1]; ZT-1a 5.0 mg/kg, vs vehicle-control mice) was “significantly improved motor function”. The “KCC3 pThr991 / Actin” value (KCC3 pThr991/pThr1048; [7]) was 0.089 and 0.127 and 0.217 and 0.096 and 0.114 and 0.223, the “KCC3 pThr1048 / Actin” value (KCC3 pThr991/pThr1048; [7]) was 0.504 and 0.573 and 0.821 and 0.586 and 0.633 and 0.872 and the “reduction of post-IVH KCC3 phosphorylation at Thr991” value (KCC3 pThr991/pThr1048; rat CPe, ICV ZT-1a) was 6 fold. For the same compound, the “reduction of post-IVH KCC3 phosphorylation at Thr1048” value (KCC3 pThr991/pThr1048; rat CPe, ICV ZT-1a) was 2.1 fold, the logP [2] was greater than 6 and the “GSK-3β Ser9 phosphorylation” value ([3]; 3 µM ZT-1a, HEK-293 cells) was “not inhibited”. The “GSK3b pSer9 / Actin” value ([3]; ZT-1a 0.3 uM) was 0.56 and 0.601 and 0.586 and 0.538, the “GSK3b pSer9 / Actin” value ([3]; ZT-1a 1 uM) was 0.58 and 0.576 and 0.603 and 0.529 and the “GSK3b pSer9 / Actin” value ([3]; ZT-1a 3 uM) was 0.53 and 0.5901 and 0.613 and 0.56. The “NKCC1 / Na-K pumb” value (pNKCC1 (pThr203/207/212); CL hemisphere) was 1.613 and 1.481 and 1.6 and 1.576 and 1.424 and 1.642, the “pThr203/207/212 / NKCC1” value (pNKCC1 (pThr203/207/212); CL hemisphere) was 0.451 and 0.437 and 0.265 and 0.378 and 0.429 and 0.303 and the “NKCC1 / Na-K pumb” value (pNKCC1 (pThr203/207/212); IL hemisphere) was 1.43 and 1.528 and 1.481 and 1.417 and 1.587 and 1.394. The “pThr203/207/212 / NKCC1” value (pNKCC1 (pThr203/207/212); IL hemisphere) was 0.461 and 0.418 and 0.385 and 0.452 and 0.396 and 0.372, the “reduction of ischemia-induced elevation of pNKCC1” value (pNKCC1 (pThr203/207/212); compared with vehicle-control mice) was 55–65% and the “ischemia-induced increase of pNKCC1” value (pNKCC1 (pThr203/207/212); post-stroke ZT-1a 5 mg/kg, 24 h reperfusion) was “prevented”. The inhibition at 3 µM (KCC3 pThr991; Homo sapiens, HEK293, 3 µM, HEK-293 cells, n = 4, read-out: inhibition of phosphorylation of KCC sites 1/2) was 65 to 77%, the “KCC3 pThr991 / KCC3” value (KCC3 pThr991; ZT-1a 0.3 uM) was 0.89 and 0.932 and 0.861 and 0.828 and the “KCC3 pThr991 / KCC3” value (KCC3 pThr991; ZT-1a 1 uM) was 0.63 and 0.651 and 0.702 and 0.601. For the same compound, the “KCC3 pThr991 / KCC3” value (KCC3 pThr991; ZT-1a 3 uM) was 0.65 and 0.601 and 0.553 and 0.517, the “86Rb+ uptake” value (HEK-293 cells; Fig 3a, Hypotonic low Cl-, ouabain + bumetanide) was 508.8 and 600.6 and 529.6 and 455.1 and 564.1 and 478.5 and the “86Rb+ uptake” value (HEK-293 cells; Fig 3a, Isotonic control, ouabain + bumetanide) was 1279.7 and 1082.2 and 1111.5 and 1436.1 and 1321.4 and 1109.8. The “86Rb+ uptake” value (HEK-293 cells; Fig 3b, Hypotonic low Cl-, ouabain) was 1181.7 and 899.6 and 1029.4 and 1120.4 and 1269.1 and 946.3, the “86Rb+ uptake” value (HEK-293 cells; Fig 3b, Isotonic control, ouabain) was 905.2 and 735.8 and 874.1 and 801.5 and 957.4 and 886.4 and the “KCC3 / Actin” value (KCC3 [4]; ZT-1a 0.3 uM) was 2.04 and 1.923 and 2.091 and 1.84. For the same compound, the “KCC3 / Actin” value (KCC3 [4]; ZT-1a 1 uM) was 1.85 and 1.949 and 1.921 and 1.782, the “KCC3 / Actin” value (KCC3 [4]; ZT-1a 3 uM) was 1.87 and 1.905 and 1.972 and 1.73 and the “% residual kinase activity” value (AMPK (hum); 1 µM) was 126±4%. For the same compound, the “% residual kinase activity” value (AMPK (hum); 10 µM) was 108±4%, the “Neurological score (score)” value ([5]; Day 0) was 3 score and the “Neurological score (score)” value ([5]; Day 1) was 3 score and 2 score (5×) and 1 score. The “Neurological score (score)” value ([5]; Day 3) was 2 score (6×) and 1 score, the “Neurological score (score)” value ([5]; Day 5) was 1 score (3×) and 2 score (4×) and the “Neurological score (score)” value ([5]; Day 7) was 1 score (4×) and 2 score (3×). For the same compound, the neurological deficit score ([5]; day 1 post tMCAO) was 2.0 ± 0.2, the neurological deficit score ([5]; day 7 post tMCAO) was 1.4 ± 0.2 and the “pERK/GAPDH (fold veh-CL)” value (pERK1/2; Cytosol, CL, Fig S4d) was 1.33 fold veh-CL and 1.29 fold veh-CL and 0.75 fold veh-CL. The “pERK/Na K pump (fold veh-CL)” value (pERK1/2; CL, Fig S4d) was 1.45 fold veh-CL and 1.52 fold veh-CL and 1.76 fold veh-CL, the “pERK/Na K pump (fold veh-CL)” value (pERK1/2; IL, Fig S4d) was 1.27 fold veh-CL and 2.10 fold veh-CL and 1.54 fold veh-CL and the “p-ERK in ischemic brains” value (pERK1/2; ZT-1a 5.0 mg/kg) was “no marked inhibition”. For the same compound, the “activation of WT KCC3 (KCC) activity” value (KCC3 [6]; 86Rb+ flux, 10 µM ZT-1a, HEK-293) was > 10.6 fold and > 10 fold, the “86Rb+ uptake” value (KCC3 [6]; Fig 3a right, KCC3 wt, ZT-1a 1 uM, Hypotonic low Cl-) was 1990.9 and 1707.8 and 2071.9 and 2501.3 and 2188.7 and 2073.1 and the “86Rb+ uptake” value (KCC3 [6]; Fig 3a right, KCC3 wt, ZT-1a 1 uM, Isotonic control) was 3241.3 and 3419.1 and 2873.4 and 3612.8 and 2913.5 and 2519.3. For the same compound, the “86Rb+ uptake” value (KCC3 [6]; Fig 3a right, KCC3 wt, ZT-1a 3 uM, Hypotonic low Cl-) was 4012.2 and 3271.9 and 4514.8 and 3888.6 and 3729.3 and 3910.5, the “86Rb+ uptake” value (KCC3 [6]; Fig 3a right, KCC3 wt, ZT-1a 3 uM, Isotonic control) was 6755.1 and 6519.9 and 7018.4 and 6691.3 and 7512.7 and 6011.7 and the “86Rb+ uptake” value (KCC3 [6]; Fig 3a right, KCC3 wt, ZT-1a 10 uM, Hypotonic low Cl-) was 11981.4 and 10921.3 and 12650.2 and 11037.8 and 12144.8 and 9615.1. The “86Rb+ uptake” value (KCC3 [6]; Fig 3a right, KCC3 wt, ZT-1a 10 uM, Isotonic control) was 17537.1 and 16129.4 and 18002.7 and 19588.5 and 17991.3 and 15002.2, the “86Rb+ uptake” value (KCC3 [6]; Fig 3a, KCC3 wt + 1a (10 µM), Hypotonic low Cl-) was 12251.1 and 13980.5 and 10874.7 and 11830.4 and 14081.1 and 11229.7 and the “86Rb+ uptake” value (KCC3 [6]; Fig 3a, KCC3 wt + 1a (10 µM), Isotonic control) was 17623.6 and 19014.4 and 18719.8 and 19961.7 and 18001.8 and 17951.6.
